Results: patent publication US20050130909A1 (priority 2002, published 2005)
pKd: −log10 of the molar value. “And” between values parts separate entries of the source, which are not always exact repeats. Equal values may be shown once. Read-outs that look alike come from different tables or passages of the source.

What was measured:
[1] = system: Gram-positive isolates, including MRSA; test: Dalbavancin MIC of trial isolates; assay type: cell-based; conditions: isolates that persisted after treatment
bovine albumin = bovine albumin (Bos taurus, UniProt P02769); test: Protein binding by ITC; conditions: 25° C.; pH 7.4
[2] = Phase II SSTI trial: adverse events (ITT population); assay type: in vivo, human
Method: (§1) This randomized, controlled study evaluated the safety and efficacy of two dose regimens of dalbavancin.
Each patient who received at least one dose of study drug (ITT population) was evaluated for drug safety through monitoring of adverse events (AE), including abnormal clinical laboratory test results and vital signs. AE were rated by the investigator as to their severity (mild, moderate, severe, life-threatening), and by the relationship to the study drug (not related, unlikely related, possibly related, or probably related).

[3] = Rat quantitative tissue distribution study; assay type: in vivo, Sprague-Dawley rats
Method: Quantitative tissue distribution studies were conducted to assess the tissue distribution of dalbavancin following a single IV infusion of dalbavancin to male rats.
All samples were analyzed by LSC.

S. aureus = test: Phase II SSTI trial: microbiological response by pathogen; assay type: in vivo, human; conditions: for Success rate by pathogen: All S. aureus: MITT at FU; for S. aureus eradication rate: microbiologically-evaluable population at FU
Method: as §1
(§2) There were 62 patients randomized into the study; all received at least one dose of study medication. Four study populations were evaluated for safety and efficacy and were defined as follows: The intent-to-treat (ITT) population included all patients who received at least one dose of study drug (all randomized study subjects).
(§3) Microbiological outcome, a secondary efficacy variable, was assessed in the subpopulation of patients who had microbiologically documented SSTI (i.e., at least one identified baseline pathogen). A microbiologic response was assessed for each Gram-positive pathogen identified at baseline (i.e., eradication, presumed eradication, persistence, presumed persistence). For patients for whom follow-up cultures were not performed, the microbiologic responses for baseline pathogens were presumed on the basis of the clinical response. Microbiologic response by patient at the EOT and FU visits was graded as success (i.e., all Gram-positive organisms eradicated or presumed eradicated) or failure (i.e., at least one Gram-positive organism persisted or presumed to have persisted, multiple pathogens with partial eradication). At both the EOT and FU visits, colonization and superinfection were assessed. At the FU visit, a patient's bacteriological response could also include recurrence.

[4] = system: Methicillin-sensitive S. aureus; test: as above; assay type: in vivo, human; conditions: MITT at FU
Method: as §1, §2, §3

[5] = system: Miscellaneous streptococcus species; test: as above; assay type: in vivo, human; conditions: MITT at FU
Method: as §1, §2, §3

[6] = Stability of dalbavancin in plasma; assay type: in vitro ADME, human; conditions: 1.5 and 90 μg/ml
HSA = HSA (Homo sapiens, UniProt P02768); test: MALDI-TOF mass spectrometry of protein-dalbavancin complexes; assay type: binding; conditions: ratios (1:2, 1:10)
Method: The samples were prepared for analysis using the dried droplet technique. Spectra were obtained on a BRUKER FLEX III, tof mass spectrometer previously tuned and calibrated using standard bovine serum albumin, acquiring and averaging spectra generated by 200 laser shots. Matrix: 9 parts of DHB-9 (2,5-dihydroxy-benzoic acid) saturated in acetonitrile/H2O (50:50), 1 part of sinapinic acid saturated in acetonitrile/H2O (50:50). 0.5 ul of sample solution and 0.5 ul of matrix solution were mixed and placed on the laser target.

Lys-D-Ala-D-Lactate = test: ITC, preliminary experiments; assay type: binding; conditions: absence of serum proteins
[7] = Phase II SSTI trial: dalbavancin plasma concentrations; assay type: in vivo, human
[8] = ESI-MS analysis of multimers in solution
Method: Experiments were performed using an Applied Biosystem API III+ mass spectrometer equipped with a TurboIonSpray source, a Triple Quadrupole analyzer, operating in positive ion mode.
The mass spectra were obtained in electrospray positive mode on a Finnigan LCQ^Deca ion trap instrument previously tuned and calibrated in electrospray mode using Ultramark 1621, caffeine and MRFA (L-metionyl-arginyl-phenilalanyl-arginine).

human albumin = human albumin (Homo sapiens, UniProt P02768); test: Protein binding by isothermal titration microcalorimetry (ITC); conditions: for Calculated percent Binding to Human albumin: albumin 6×10^−4 M assumed
Gram-positive pathogen = test: Phase II SSTI trial: microbiological response, all Gram-positive pathogens; assay type: in vivo, human; conditions: for Success rate by pathogen: Total organisms: MITT at FU; for Microbiologic success rate (by patient): MITT population; for Eradication/presumed eradication rate, all organisms: microbiologically-evaluable population at FU
Method: as §1, §2, §3

[9] = system: N,N′-diacetyl-Lys-D-Ala-D-Ala; test: ITC of binding to tri-peptide cell-wall analog, with and without HSA
Method: Peptide concentrations were determined by weight.
Trans. R. Soc. Lond. Ser. A-Math. Phys. Eng. […] Wiley, (1998) p 103-111; and Cooper, A., Curr. Opin. Chem. Biol. (1999) 3, 557-563.

[10] = single-dose dalbavancin (N = 20)

human albumin, sequence (P02768 25-609): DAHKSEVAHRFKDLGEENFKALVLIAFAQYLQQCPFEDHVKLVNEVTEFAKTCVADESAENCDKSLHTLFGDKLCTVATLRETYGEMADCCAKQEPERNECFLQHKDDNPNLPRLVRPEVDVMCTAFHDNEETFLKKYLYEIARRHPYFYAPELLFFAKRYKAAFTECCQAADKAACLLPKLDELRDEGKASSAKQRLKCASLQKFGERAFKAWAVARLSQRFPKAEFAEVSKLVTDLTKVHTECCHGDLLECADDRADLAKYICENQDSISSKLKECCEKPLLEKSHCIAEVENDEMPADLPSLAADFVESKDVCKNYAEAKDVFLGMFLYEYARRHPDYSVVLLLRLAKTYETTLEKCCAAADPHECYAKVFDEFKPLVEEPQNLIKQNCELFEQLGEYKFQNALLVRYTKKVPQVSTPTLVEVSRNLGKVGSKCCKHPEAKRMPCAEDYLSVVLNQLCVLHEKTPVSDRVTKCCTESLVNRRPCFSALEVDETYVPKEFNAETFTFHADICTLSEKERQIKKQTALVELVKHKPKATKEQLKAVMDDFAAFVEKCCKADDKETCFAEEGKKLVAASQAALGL
HSA, sequence (P02768 25-609): as above
bovine albumin, sequence (P02769 25-607): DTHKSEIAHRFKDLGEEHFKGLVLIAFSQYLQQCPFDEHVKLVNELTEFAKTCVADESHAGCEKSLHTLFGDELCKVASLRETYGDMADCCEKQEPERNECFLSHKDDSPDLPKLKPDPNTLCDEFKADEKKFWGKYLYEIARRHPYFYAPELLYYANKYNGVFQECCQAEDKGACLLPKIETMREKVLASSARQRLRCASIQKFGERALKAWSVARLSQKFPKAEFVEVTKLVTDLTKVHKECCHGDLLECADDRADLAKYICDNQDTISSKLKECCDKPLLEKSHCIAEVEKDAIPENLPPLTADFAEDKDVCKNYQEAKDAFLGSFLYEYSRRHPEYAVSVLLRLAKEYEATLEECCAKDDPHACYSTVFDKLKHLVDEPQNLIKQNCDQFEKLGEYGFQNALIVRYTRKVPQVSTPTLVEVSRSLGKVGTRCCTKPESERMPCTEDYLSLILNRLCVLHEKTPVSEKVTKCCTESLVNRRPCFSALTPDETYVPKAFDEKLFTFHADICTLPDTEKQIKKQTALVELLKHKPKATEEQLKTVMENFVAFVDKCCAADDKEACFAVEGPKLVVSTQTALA

SMILES: CN[C@H]1C(=O)N[C@@H]2Cc3ccc(cc3)Oc3cc4cc(c3O[C@@H]3O[C@H](C(=O)O)[C@@H](O)[C@H](O)[C@H]3NC(=O)CCCCCCCCC(C)C)Oc3ccc(cc3Cl)[C@@H](O)[C@@H]3NC(=O)[C@H](NC(=O)[C@@H]4NC(=O)[C@@H](NC2=O)c2cc(cc(O)c2Cl)Oc2cc1ccc2O)c1ccc(O)c(c1)-c1c(O[C@H]2O[C@H](CO)[C@@H](O)[C@H](O)[C@@H]2O)cc(O)cc1[C@@H](C(=O)NCCCN(C)C)NC3=O [Dalbavancin]
- Change in dalbavancin MIC of isolates that persisted [1]: no change in dalbavancin MIC
- Apparent binding affinity Ka (bovine albumin): 1.38 (±0.14) ×10^5 M^−1
- Hepatotoxicity or nephrotoxicity ([2]; Phase II trial): no evidence that dalbavancin induces any degree of clinically significant hepatotoxicity or nephrotoxicity
- Serious adverse events related to study drug ([2]; Phase II trial, both dalbavancin regimens): no serious adverse events related to study drug treatment
- Tolerability ([2]; Phase II trial, both doses): well tolerated
- AE leading to discontinuation of study medication [2, 10]: 0
- Patients with ≧1 AE [2, 10]: 95%
- ≧1 AE possibly/probably related to treatment [2, 10]: 55%
- ≧1 AE possibly/probably related to treatment ([2]; single-dose dalbavancin (N = 20), listed as dalbavancin): 55%
- AE leading to discontinuation of study medication ([2]; two-dose dalbavancin (N = 21)): 0
- Adverse event: Constipation ([2]; two-dose dalbavancin (N = 21)): 4.8%
- Patients with ≧1 AE ([2]; two-dose dalbavancin (N = 21)): 76.2%
- ≧1 AE possibly/probably related to treatment ([2]; two-dose dalbavancin (N = 21)): 48%
- ≧1 AE possibly/probably related to treatment ([2]; two-dose dalbavancin (N = 21), listed as dalbavancin): 48%
- Dose recovered in the bile ([3]; bile duct cannulated rats, over 384 h after the dose): ~11 % of the dose
- Concentrations of radioactivity in the CNS ([3]; healthy rats): low but detectable
- Time by which all tissues had quantifiable drug-derived radioactivity ([3]; male rats, single IV infusion 20 mg/kg): ≤ 12 h
- Skin penetration: drug-derived radioactivity in skin relative to plasma ([3]; rats): as high as or higher than in plasma
- Tissue accumulation ([3]; rats, through 70 days): did not accumulate in any single tissue, organ, or blood cellular component
- Success rate by pathogen: All S. aureus (S. aureus; single-dose 1100 mg): 5/13 (38%)
- Success rate by pathogen: All S. aureus (S. aureus; two-dose 1000/500 mg): 9/11 (82%)
- S. aureus eradication rate (S. aureus; single-dose dalbavancin): 50%
- S. aureus eradication rate (S. aureus; two-dose dalbavancin): 90%
- Success rate by pathogen: Methicillin-sensitive ([4]; single-dose 1100 mg): 2/7 (29%)
- Success rate by pathogen: Methicillin-sensitive ([4]; two-dose 1000/500 mg): 5/6 (83%)
- Success rate by pathogen: Miscellaneous streptococcus species ([5]; single-dose 1100 mg): 2/3 (67%)
- Success rate by pathogen: Miscellaneous streptococcus species ([5]; two-dose 1000/500 mg): 4/4 (100%)
- Stability in processed plasma samples ([6]; 24 hours at room temperature): stable after 24 hours at room temperature
- Stability in human plasma, freeze-thaw ([6]; three cycles of freeze-thaw): stable after three cycles of freeze-thaw treatment
- Complex with HSA at very high dalbavancin to protein ratios (HSA): complexes containing 2 molecules of dalbavancin per protein molecule can be observed
- Binding to Lys-D-Ala-D-Lactate (Lys-D-Ala-D-Lactate): no evidence of binding
- Dalbavancin plasma level maintained ([7]; additional week, with an additional dose of 500 mg IV on day 8): greater than 20 mg/l
- Mean dalbavancin plasma concentration (mean±SD) ([7]; single-dose regimen 1100 mg IV, Study day 8): 31.1 ± 7.1 mg/L
- Mean dalbavancin plasma concentration (mean±SD) ([7]; single-dose regimen, Study day 10): 25.2 ± 4.8 mg/L
- Mean dalbavancin plasma concentration (mean±SD) ([7]; single-dose regimen, Study day 24): 10.2 ± 3.5 mg/L
- Dalbavancin plasma concentration, all patients ([7]; through the first week following the first dose): greater than 20 mg/l
- Mean dalbavancin plasma concentration (mean±SD) ([7]; two-dose regimen 1000/500 mg IV, Study day 8 (prior to the second dose)): 30.4 ± 8.2 mg/L
- Mean dalbavancin plasma concentration (mean±SD) ([7]; two-dose regimen, Study day 20): 21.2 ± 10.0 mg/L
- Mean dalbavancin plasma concentration (mean±SD) ([7]; two-dose regimen, Study day 34): 9.0 ± 4.4 mg/L
- Population ratio of multimer to monomer: influence of ionic strength ([8]; 100 μg/mL, ammonium formate 5, 50, 100 mM pH 5, FIGS. 6-8): decrease in dalbavancin multimer to monomer population ratio
- Population ratio of multimer to monomer: influence of concentration ([8]; 20, 40, 60, and 80 μg/mL, FIG. 4): increases with increasing concentration
- Multimers in solution ([8]; dalbavancin 0.1 mg/ml in 8:2 water:isopropanol, teicoplanin 50 and 100 μg/mL in water): indicates the presence of dalbavancin multimers
- Population ratio of multimer to monomer: influence of pH ([8]; pH 2.5 to 5.5, FIG. 5): increases with increasing pH
- Apparent binding affinity Ka (human albumin; 37° C., pH 7.4): 1.33 (±0.15) ×10^5 M^−1
- Binding stoichiometry N (protein to dalbavancin) (human albumin; ITC fit, in all cases (all proteins tested), FIG. 2): < 1
- Binding to human serum albumin (human albumin; across 1-500 μM dalbavancin): exceeds 98%
- Calculated percent Binding to Human albumin (human albumin; antibiotic 1 μM): 98.8%
- Calculated percent Binding to Human albumin (human albumin; antibiotic 10 μM): 98.8%
- Calculated percent Binding to Human albumin (human albumin; antibiotic 100 μM): 98.7%
- Calculated percent Binding to Human albumin (human albumin; antibiotic 165 μM): 98.6%
- Calculated percent Binding to Human albumin (human albumin; antibiotic 250 μM): 98.5%
- Calculated percent Binding to Human albumin (human albumin; antibiotic 500 μM): 98.0%
- Binding stoichiometry antibiotic:protein (human albumin; binding stoichiometry modeling of ITC data): two dalbavancin molecules are bound to one molecule of protein
- Free fraction (human albumin; human): ~1%
- Success rate by pathogen: Total organisms (Gram-positive pathogen; single-dose 1100 mg): 7/16 (43.8%)
- Success rate by pathogen: Total organisms (Gram-positive pathogen; two-dose 1000/500 mg): 14/16 (87.5%)
- Microbiologic success rate (by patient) (Gram-positive pathogen; EOT, single-dose 1100 mg): 5/14 (35.7) %
- Microbiologic success rate (by patient) (Gram-positive pathogen; EOT, two-dose 1000/500 mg): 10/13 (76.9) %
- Microbiologic success rate (by patient) (Gram-positive pathogen; FU, single-dose 1100 mg): 3/14 (21.4) %
- Microbiologic success rate (by patient) (Gram-positive pathogen; FU, two-dose 1000/500 mg): 9/13 (69.2) %
- Microbiologic success rates, summary over both visits (EOT, FU) (Gram-positive pathogen; microbiologically-evaluable and MITT populations, single dose of dalbavancin): < 40%
- Eradication/presumed eradication rate, all organisms (Gram-positive pathogen; single-dose dalbavancin): 58.3% and 58%
- Eradication/presumed eradication rate, all organisms (Gram-positive pathogen; two-dose dalbavancin): 92.3% and 92%
- Kass ([9]; 10 ° C., [HSA] 0 μM): 920000 M⁻¹ and 685000 M⁻¹ and 624000 M⁻¹ and 670000 M⁻¹
- pKd ([9]; 10 ° C., [HSA] 0 μM, read-out: Kdiss): 5.96 and 5.80 and 5.83
- pKd ([9]; 10° C., absence of HSA, read-out: Average Kdiss): ~5.85
- Weakening of binding affinity at HSA plateau relative to absence of HSA ([9]; 25° C.): 10-12 ×
- Kass ([9]; 25 ° C., [HSA] 0 μM): 313000 M⁻¹ and 330000 M⁻¹ and 320000 M⁻¹ and 280000 M⁻¹ and 303000 M⁻¹ and 319000 M⁻¹ and 393000 M⁻¹
- pKd ([9]; 25 ° C., [HSA] 0 μM, read-out: Kdiss): 5.45 and 5.48 and 5.60
- pKd ([9]; 25° C., absence of HSA (free dalbavancin), read-out: Average Kdiss): ~5.51
- Kass ([9]; 25 ° C., with HSA 34.2 μM): 35000 M⁻¹
- pKd ([9]; 25 ° C., with HSA 34.2 μM, read-out: Kdiss): 4.54
- pKd ([9]; 37° C., absence of HSA, read-out: Average Kdiss): ~5.08
- Effect of HSA on solubility of dalbavancin ([9]; aqueous buffer pH 7.4 containing HSA): HSA increased the solubility of dalbavancin
- pKd ([9]; read-out: Apparent Kdiss, plateau level at high concentrations of HSA (dalbavancin bound to HSA), 25° C., HSA above 35 μM up to 600 μM, FIG. 11): ~4.46
